Reference: US9878984B2, “Anti-cancer compounds” (NORTHWESTERN UNIVERSITY, priority 2008, dated 2018)
“Also recorded” adds a separate entry of the source.

Columns and labels:
Assay type in all cases: cell-based, human
[1] = system: Normal cells (PBMC, HUVEC, and WI-38); test: Cancer cell selective growth inhibition (cancer cells vs normal cells); details: 72 hr MTS
Procedure: […] Peripheral blood mononuclear cells (PBMCs) were voluntarily collected from a healthy laboratory worker by standard sterile phlebotomy techniques and isolated using Vacutainer CPT collection tubes (BD Biosciences—Bedford, Mass.). PBMCs were isolated freshly for each experiment. All DMEM and RPMI-1640 media was supplemented with 10% FBS (Atlanta Biologicals—Lawrenceville, Ga.) and 100 U/mL penicillin and streptomycin (Invitrogen). HUVEC (Human umbilical vein endothelial cells) were cultured in EGM-2 media with supplements provided in the manufacturers BulletKit (Lonza—Walersville, Md.). All cells were maintained at 37° C. and in a 5% CO2 atmosphere.
Growth Inhibition Assays: HeLa, MDA-MB-231, PC-3M, WI-38, and HUVEC cells were plated at 5,000 cells per well in 96 well plates and allowed to attach for 20 hr (8 hr for HeLa). The media was removed and 198 μL of fresh media was added to each well. […] PBMCs were isolated and plated at 100,000 per well in 96 well plates with a volume of 197 μL. They were allowed to settle in the media for 20 hr, at which point 1 μL of 1 mg/mL phytohemagglutinin (Sigma—St. Loius Mo.) in PBS was added to stimulate proliferation (final concentration of 5 μg/mL). […] Cell proliferation was measured at t=0 (time at start of treatment) and t=72 hr using MTS AQueous non-radioactive proliferation assay (Promega—Madison, Wis.). This assay utilizes the metabolic conversion of yellow tetrazolium to a purple formazan by live cells and the color change is proportional to the number of cells. […] The absorbance at 490 nm in each well was read with a Spectramax 250 plate reader (Molecular Devices—Sunnyvale, Calif.). […] Data were fit to one site dose response curves in order to obtain specific growth inhibitory concentrations and the relative standard errors of the mean for these concentrations were calculated by the XLfit4 software. Statistical significance (p value) for the selectivity and all subsequent assays was determined with the two tailed homoscedastic Student's t-test. […]

HeLa cells [2] = test: Transwell invasion assay; details: [GI99%], matrigel, 20 hr
Procedure: Transwell Invasion Assay: HeLa cells were plated at 250,000 per 35 mm well and allowed to attach for 8 hr. The cells were washed with PBS and then treated for 4 hr with the [GI99%] of each compound (or 1% DMSO—vehicle control) in serum free media to decrease the number of invading cells in the beginning of the experiment due to a preliminary lack of drug exposure. The cells were then trypsinized and counted by trypan blue exclusion with a hemacytometer (Sigma—St. Louis, Mo.). Eight micron pore size control well inserts for 12 well plates (BD Biosciences) were coated with 100 μL 1 mg/mL matrigel (Sigma—St. Louis, Mo.) and allowed to solidify at room temperature for 1 hr. The excess matrigel was aspirated and the inserts were gently washed with PBS. The cells were seeded at a density of 300,000 per insert well in a volume of 500 μL serum free media containing a derivative or vehicle. The inserts were then placed in wells containing 700 μL serum free media with the respective compound. After 20 hr the cells on the top of the membranes were gently removed with a cotton swab, the membranes then were fixed in methanol for 1 min, stained in Gills No. 3 Hematoxylin (Sigma—St. Louis, Mo.) for 5 min, rinsed in tap water, and allowed to dry overnight. The membranes were excised, mounted on slides, and the cells were counted under the 40× objective of a bright field microscope. The data are expressed as the average total number of invading cells counted in 20 fields of each membrane, as standardized to the vehicle control, from six experiments.
Effect of derivatives on the malignant phenotype—invasion assay: If A1-A9 have differential targets, DNA binding specificity, or downstream effects they may differentially alter the malignant behavior of cells. Also, anti-cancer compounds can be efficacious against tumors in other ways besides inhibiting growth and inducing death of cancer cells; they can also alter the behavior of malignant cells. Therefore, the ability of A1-A9 and amonafide to alter the invasive behavior of cancer cells in a transwell (also known as Boyden chamber) invasion assay was evaluated, which determines the ability of cells to migrate through a proteinacious gel. This behavior is considered to be representative of cancer cell invasion through the basement membrane of the primary tumor environment. In this assay, treated cells are seeded on to the top of the matrigel-coated porous membrane, allowed to invade through the proteinacious gel onto the underside of the membrane, and then counted.

HeLa cells [3] = test: Perinucleolar compartment (PNC) prevalence reduction; details: for PNC prevalence reduction at [GI50%]: [GI50%] for 72 hr
Procedure: Perinucleolar Compartment (PNC) Reduction: HeLa cells (PNC prevalence ˜85%) were plated 5,000/well in glass bottom 96 well plates and allowed to attach for 8 hr. The cells were then treated with compounds at the respective [GI50%] for 72 hr and [GI99%] for 20 hr for each compound (total media volume was 200 μL/well with 1% DMSO). After treatment cells were immunofluorescently stained as previously described, but with a Texas Red labeled secondary antibody (Jackson) instead of a FITC labeled secondary antibody. PNC prevalence (% of non-apoptotic/non-mitotic cells with 1 or more PNCs) was determined by scoring >200 cells per well with fluorescent microscope (60× objective) and images were acquired with the digital camera and image acquisition software previously mentioned. Scale bar=10 μm. Data are expressed as the average PNC prevalence (% control) of three individual experiments.
The PNC is a unique structural marker that it is only found in malignantly transformed cancer cells, irrespective of tissue origin, and indicates cells that are capable of metastasis. […] Previous studies indicate that the PNC likely conveys a functional metastatic advantage to cancer cells. The PNC prevalence (% of cells with one or more PNC) in human breast cancer positively correlates with the progression of the disease and is always near 100% in distant metastases. […] The PNC prevalence reduction was determined for amonafide and A1-A9 at the respective [GI50%] and [GI99%] doses in HeLa cells, which have a high PNC prevalence of ˜85%.

Row | SMILES | cancer cell selective growth inhibition (selectivity) [1] | invasive behavior (% invading cells vs vehicle) (HeLa cells [2]) | PNC prevalence reduction at [GI50%] (HeLa cells [3]) | PNC prevalence reduction at [GI99%] (HeLa cells [3]; [GI99%] for 20 hr)
1 | CN(C)CCN1C(=O)c2cccc3c(N)ccc(c23)C1=O [A1, 6-amino-2-[2-(dimethylamino)ethyl]-1H-benz[de]isoquinoline-1,3(2H)-dione] | near identical to amonafide | did not significantly alter the invasive behavior of HeLa cells compared to the control | able effectively reduce the PNC; also recorded: can significantly reduce PNC prevalence | 
2 | CN(C)CCN1C(=O)c2cccc3cc(N)cc(c23)C1=O [amonafide, reference compound] | slightly more potent (but not with statistical significance) or equally potent at inhibiting the growth of cancer cells over normal cells | did not significantly alter the invasive behavior of HeLa cells compared to the control | able effectively reduce the PNC; also recorded: can significantly reduce PNC prevalence | able to greatly reduce the PNC prevalence
